In patent US8067408B2, “Dual pharmacophores—PDE4-muscarinic antagonistics” (priority 2008, dated 2011):

Row | SMILES | melting point
1 | CCc1nc2c(cnn2CC)c(NC2CCOCC2)c1CNC(=O)c1cccc(C(=O)NCc2ccc(C)c(-c3cccc(CN4CCN(C)CC4)c3)c2)c1 [Example 193, N-{[1,6-Diethyl-4-(tetrahydro-2H-pyran-4-ylamino)-1H-pyrazolo[3,4-b]pyridin-5-yl]methyl}-N′-({6-methyl-3′-[(4-methyl-1-piperazinyl)methyl]-3-biphenylyl}methyl)-1,3-benzenedicarboxamide] | 121 to 124 °C
2 | CCc1nc2c(cnn2CC)c(NC2CCOCC2)c1CNC(=O)c1cc(C)cc(C(=O)NCc2ccc(OC)c(-c3cccc(C=O)c3)c2)c1 | 117 to 119 °C
3 | CCc1nc2c(cnn2CC)c(NC2CCOCC2)c1CNC(=O)c1cccc(C(=O)NCc2ccc(F)c(-c3cccc(CN4CCN(CC)CC4)c3)c2)c1 [Example 202, N-{[1,6-Diethyl-4-(tetrahydro-2H-pyran-4-ylamino)-1H-pyrazolo[3,4-b]pyridin-5-yl]methyl}-N′-({3′-[(4-ethyl-1-piperazinyl)methyl]-6-fluoro-3-biphenylyl}methyl)-1,3-benzenedicarboxamide] | 155 to 158 °C
4 | CCc1nc2c(cnn2CC)c(NC2CCOCC2)c1CNC(=O)c1cccc(C(=O)NCc2ccc(F)c(-c3cccc(CN4C[C@H](C)NC[C@H]4C)c3)c2)c1 [Example 198, N-{[1,6-Diethyl-4-(tetrahydro-2H-pyran-4-ylamino)-1H-pyrazolo[3,4-b]pyridin-5-yl]methyl}-N′-[(3′-{[(2R,5S)-2,5-dimethyl-1-piperazinyl]methyl}-6-fluoro-3-biphenylyl)methyl]-1,3-benzenedicarboxamide] | 187 to 190 °C (dec.)
5 | CCc1nc2c(cnn2CC)c(NC2CCOCC2)c1CNC(=O)c1cccc(C(=O)NCc2ccc(OC)c(-c3cccc(CN4CCNCC4)c3)c2)c1 [Example 209, N-{[1,6-Diethyl-4-(tetrahydro-2H-pyran-4-ylamino)-1H-pyrazolo[3,4-b]pyridin-5-yl]methyl}-N′-{[6-(methyloxy)-3′-(1-piperazinylmethyl)-3-biphenylyl]methyl}-1,3-benzenedicarboxamide] | 138 to 140 °C
6 | CCc1nc2c(cnn2CC)c(NC2CCOCC2)c1CNC(=O)c1cccc(C(=O)NCc2ccc(F)c(-c3cccc(CN(C)CCN(C)C)c3)c2)c1 [Example 206, N-{[1,6-Diethyl-4-(tetrahydro-2H-pyran-4-ylamino)-1H-pyrazolo[3,4-b]pyridin-5-yl]methyl}-N′-[(3′-{[[2-(dimethylamino)-ethyl](methyl)amino]methyl}-6-fluoro-3-biphenylyl)methyl]-1,3-benzenedicarboxamide] | 126 to 129 °C
7 | CCc1nc2c(cnn2CC)c(NC2CCOCC2)c1CNC(=O)c1cc(C)cc(C(=O)NCc2cccc(-c3cccc(C=O)c3)c2)c1 | 109 to 112 °C
8 | CCc1nc2c(cnn2CC)c(NC2CCOCC2)c1CNC(=O)c1cccc(C(=O)NCc2ccc(F)c(-c3cccc(CN4CCCNCC4)c3)c2)c1 [Example 204, N-{[1,6-Diethyl-4-(tetrahydro-2H-pyran-4-ylamino)-1H-pyrazolo[3,4-b]pyridin-5-yl]methyl}-N′-{[6-fluoro-3′-(hexahydro-1H-1,4-diazepin-1-ylmethyl)-3-biphenylyl]methyl}-1,3-benzenedicarboxamide] | 145 to 148 °C
9 | CCc1nc2c(cnn2CC)c(NC2CCOCC2)c1CNC(=O)c1cccc(C(=O)NCc2ccc(F)c(-c3cccc(CN4C[C@@H]5C[C@H]4CN5)c3)c2)c1 [Example 207, N-({3′-[(1S,4S)-2,5-Diazabicyclo [2.2.1]hept-2-ylmethyl]-6-fluoro-3-biphenylyl}methyl)-N′-{[1,6-diethyl-4-(tetrahydro-2H-pyran-4-ylamino)-1H-pyrazolo[3,4-b]pyridin-5-yl]methyl}-1,3-benzenedicarboxamide] | 129 to 133 °C
10 | CCc1nc2c(cnn2CC)c(NC2CCOCC2)c1CNC(=O)c1cc(C)cc(C(=O)NCc2ccc(Cl)c(-c3cccc(C=O)c3)c2)c1 | 153 to 156 °C
11 | CCc1nc2c(cnn2CC)c(NC2CCOCC2)c1CNC(=O)c1cccc(C(=O)NCc2ccc(F)c(-c3cccc(CN4CCCCC4)c3)c2)c1 [Example 199, N-{[1,6-Diethyl-4-(tetrahydro-2H-pyran-4-ylamino)-1H-pyrazolo[3,4-b]pyridin-5-yl]methyl}-N′-{[6-fluoro-3′-(1-piperidinylmethyl)-3-biphenylyl]methyl}-1,3-benzenedicarboxamide] | 128 to 131 °C

Second part, the compound after the results:

Row | melting point | SMILES
12 | 145 to 149 °C | CCc1nc2c(cnn2CC)c(NC2CCOCC2)c1CNC(=O)c1cccc(C(=O)NCc2ccc(Cl)c(-c3cccc(CN4C[C@@H]5C[C@H]4CN5)c3)c2)c1 [Example 223, N-({6-Chloro-3′-[(1S,4S)-2,5-diazabicyclo [2.2.1]hept-2-ylmethyl]-3-biphenylyl}methyl)-N′-{[1,6-diethyl-4-(tetrahydro-2H-pyran-4-ylamino)-1H-pyrazolo[3,4-b]pyridin-5-yl]methyl}-1,3-benzenedicarboxamide]
13 | 121 to 123 °C | CCc1nc2c(cnn2CC)c(NC2CCOCC2)c1CNC(=O)c1cc(C)cc(C(=O)NCc2ccc(OC)c(-c3cccc(CN4CCN[C@@H](C)C4)c3)c2)c1 [Example 423, N-{[1,6-Diethyl-4-(tetrahydro-2H-pyran-4-ylamino)-1H-pyrazolo[3,4-b]pyridin-5-yl]methyl}-5-methyl-N′-[(6-(methyloxy)-3′-{[(3S)-3-methyl-1-piperazinyl]methyl}-3-biphenylyl)methyl]-1,3-benzenedicarboxamide]
14 | 127 to 129 °C | CCc1nc2c(cnn2CC)c(NC2CCOCC2)c1CNC(=O)c1cccc(C(=O)NCc2ccc(OC)c(-c3cccc(CN4C[C@@H](C)N[C@@H](C)C4)c3)c2)c1 [Example 210, N-{[1,6-Diethyl-4-(tetrahydro-2H-pyran-4-ylamino)-1H-pyrazolo[3,4-b]pyridin-5-yl]methyl}-N′-{[3′-{[(3R,5S)-3,5-dimethyl-1-piperazinyl]methyl}-6-(methyloxy)-3-biphenylyl]methyl}-1,3-benzenedicarboxamide]
15 | 115 to 118 °C | CCc1nc2c(cnn2CC)c(NC2CCOCC2)c1CNC(=O)c1cccc(C(=O)NCc2ccc(C)c(-c3cccc(CN4CCN[C@@H](C)C4)c3)c2)c1 [Example 212, N-{[1,6-Diethyl-4-(tetrahydro-2H-pyran-4-ylamino)-1H-pyrazolo[3,4-b]pyridin-5-yl]methyl}-N′-[(6-methyl-3′-{[(3S)-3-methyl-1-piperazinyl]methyl}-3-biphenylyl)methyl]-1,3-benzenedicarboxamide]
16 | 117 to 120 °C | CCc1nc2c(cnn2CC)c(NC2CCOCC2)c1CNC(=O)c1cccc(C(=O)NCc2ccc(Cl)c(-c3cccc(CN4CCN[C@@H](C)C4)c3)c2)c1 [Example 214, N-[(6-Chloro-3′-{[(3S)-3-methyl-1-piperazinyl]methyl}-3-biphenylyl)methyl]-N′-{[1,6-diethyl-4-(tetrahydro-2H-pyran-4-ylamino)-1H-pyrazolo[3,4-b]pyridin-5-yl]methyl}-1,3-benzenedicarboxamide]
